Test results published in ChEMBL document CHEMBL1201862, “PubChem BioAssay data set” (2004).
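Each compound was tested at five concentrations against cells in 96-well plates for 48 hours. GI50 is the concentration that inhibits growth by half.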 Activity calls are given as the source filed them. No stated cut-off is given here; in the data, active = GI50 up to about 1.1 µM and inactive = higher.

Columns and labels:
Assay in all cases: NCI tumour cell line growth inhibition, 48 h
UACC-62 = system: UACC-62
OVCAR-5 = system: OVCAR-5
SF-539 = system: SF-539
HT-29 = system: HT-29
CCRF-CEM = system: CCRF-CEM
TK-10 = system: TK-10
SK-MEL-2 = system: SK-MEL-2
MOLT-4 = system: MOLT-4
SK-MEL-5 = system: SK-MEL-5
Malme-3M = system: Malme-3M
OVCAR-3 = system: OVCAR-3
SR = system: SR
NCI-H226 = system: NCI-H226
MDA-MB-231 = system: MDA-MB-231
SF-295 = system: SF-295
SNB-75 = system: SNB-75
IGROV-1 = system: IGROV-1
SF-268 = system: SF-268

| Compound | GI50 (UACC-62) | GI50 (OVCAR-5) | GI50 (SF-539) | GI50 (HT-29) | GI50 (CCRF-CEM) | GI50 (TK-10) | GI50 (SK-MEL-2) | GI50 (MOLT-4) | GI50 (SK-MEL-5) | GI50 (Malme-3M) | GI50 (OVCAR-3) | GI50 (SR) | GI50 (NCI-H226) | GI50 (MDA-MB-231) | GI50 (SF-295) | GI50 (SNB-75) | GI50 (IGROV-1) | GI50 (SF-268) |
| --- | --- | --- | --- | --- | --- | --- | --- | --- | --- | --- | --- | --- | --- | --- | --- | --- | --- | --- |
| CC(=O)c1cnc2oc3ccc(O)cc3c2c1-c1ccccc1 | 20.5 µM (inactive) | 71.6 µM (inactive) | 15 µM (inactive) | 95.5 µM (inactive) | 45 µM (inactive) | 28.6 µM (inactive) | 22.6 µM (inactive) | 19.2 µM (inactive) | 22.2 µM (inactive) | 15.5 µM (inactive) | 17.3 µM (inactive) | 33.3 µM (inactive) | 35.6 µM (inactive) | 25.2 µM (inactive) | 30 µM (inactive) |  |  |  |
| CCCCN(CCCC)CCC(O)c1cc2c(Cl)cc(Cl)cc2c2cc(C(F)(F)F)ccc12 (stereo not given) | 15 µM (inactive) | 12.9 µM (inactive) | 9.4 µM (inactive) | 13.6 µM (inactive) | 11.2 µM (inactive) | 13.4 µM (inactive) | 16.1 µM (inactive) | 8.57 µM (inactive) |  | 16.4 µM (inactive) | 11.6 µM (inactive) | 10.3 µM (inactive) |  | 2.52 µM (inactive) | 12.4 µM (inactive) | 11.7 µM (inactive) | 12.7 µM (inactive) | 11.7 µM (inactive) |
| CC(C)(C)OC(=O)NCC(O)CNC(=O)OC(C)(C)C | > 100 µM (inactive) | > 100 µM (inactive) | > 100 µM (inactive) |  | > 100 µM (inactive) | > 100 µM (inactive) |  | > 100 µM (inactive) | > 100 µM (inactive) | > 100 µM (inactive) | > 100 µM (inactive) | > 100 µM (inactive) | > 100 µM (inactive) | > 100 µM (inactive) | > 100 µM (inactive) |  | > 100 µM (inactive) | > 100 µM (inactive) |
| CCOc1ccc(C(=O)/C=C2/Nc3ccccc3N/C2=C/C(=O)c2ccc(OCC)cc2)cc1 | > 100 µM (inactive) | > 100 µM (inactive) | > 100 µM (inactive) | > 100 µM (inactive) | 29.7 µM (inactive) | > 100 µM (inactive) | > 100 µM (inactive) | 81.3 µM (inactive) | > 100 µM (inactive) | 41.7 µM (inactive) | > 100 µM (inactive) | 3.43 µM (inactive) | > 100 µM (inactive) | > 100 µM (inactive) | > 100 µM (inactive) |  | 57.9 µM (inactive) | > 100 µM (inactive) |
| CC(C)(C)OC(=O)Cn1ncn(NC(=O)Cc2ccccc2)c1=O | > 10 µM (inactive) | > 10 µM (inactive) | > 10 µM (inactive) | > 10 µM (inactive) | > 10 µM (inactive) | > 10 µM (inactive) |  | > 10 µM (inactive) | > 10 µM (inactive) | > 10 µM (inactive) | > 10 µM (inactive) | > 10 µM (inactive) | > 10 µM (inactive) | > 10 µM (inactive) | > 10 µM (inactive) |  | > 10 µM (inactive) | > 10 µM (inactive) |
| C=CCCCC1SC2=C(CC)CCCN2C1=O (stereo not given) | 81.3 µM (inactive) | > 100 µM (inactive) | > 100 µM (inactive) | 58.3 µM (inactive) |  | 84.3 µM (inactive) | > 100 µM (inactive) | 56.8 µM (inactive) | 36.1 µM (inactive) | 48.5 µM (inactive) | 78.7 µM (inactive) | 57.7 µM (inactive) | > 100 µM (inactive) | 92 µM (inactive) | 64 µM (inactive) |  | > 100 µM (inactive) | 74.6 µM (inactive) |
| CC1=C(c2ccccc2)NC(=S)C(C)C(c2ccccc2)=N1 (stereo not given) | 33.7 µM (inactive) | > 100 µM (inactive) | 16.3 µM (inactive) | 32.4 µM (inactive) | 12.1 µM (inactive) | 58.2 µM (inactive) |  | 15.2 µM (inactive) | 24.9 µM (inactive) | 32.7 µM (inactive) |  | 22 µM (inactive) | 52.4 µM (inactive) | > 100 µM (inactive) | 29.1 µM (inactive) | 65.6 µM (inactive) | 36.9 µM (inactive) | 27.5 µM (inactive) |
| COC(=O)c1ccc2c(c1)CC1(C2)Cc2ccc3c(c2C1)CCC3 (stereo not given) | 14.6 µM (inactive) | > 100 µM (inactive) | 47.8 µM (inactive) | 17.5 µM (inactive) | 19.3 µM (inactive) | > 100 µM (inactive) |  | 15 µM (inactive) | 14.3 µM (inactive) | 17.4 µM (inactive) | 80.2 µM (inactive) | 20.8 µM (inactive) | 47.6 µM (inactive) | 5.07 µM (inactive) | 24.9 µM (inactive) | 33.3 µM (inactive) | 42.8 µM (inactive) | 93.8 µM (inactive) |
| NCCCCC(NC(=O)C(N)Cc1ccc(O)cn1)C(=O)O (stereo not given) |  | > 100 µM (inactive) | > 100 µM (inactive) | > 100 µM (inactive) | > 100 µM (inactive) | > 100 µM (inactive) |  | > 100 µM (inactive) | > 100 µM (inactive) | > 100 µM (inactive) | > 100 µM (inactive) | > 100 µM (inactive) | > 100 µM (inactive) | > 100 µM (inactive) | > 100 µM (inactive) |  | > 100 µM (inactive) | > 100 µM (inactive) |
| COC1CCC(=O)N1CN(C(C)=O)c1ccc(C)cc1 (stereo not given) | > 100 µM (inactive) | > 100 µM (inactive) | > 100 µM (inactive) | > 100 µM (inactive) | 0.0569 µM (active) | > 100 µM (inactive) | > 100 µM (inactive) | > 100 µM (inactive) | > 100 µM (inactive) |  | > 100 µM (inactive) | > 100 µM (inactive) | > 100 µM (inactive) | > 100 µM (inactive) | > 100 µM (inactive) | > 100 µM (inactive) |  | > 100 µM (inactive) |
| CC(CC(=O)N1C2CC3CCC2(CS1(=O)=O)C3(C)C)[Si](C)(C)C (stereo not given) |  |  | > 100 µM (inactive) | > 100 µM (inactive) | > 100 µM (inactive) | > 100 µM (inactive) |  | > 100 µM (inactive) | > 100 µM (inactive) | > 100 µM (inactive) | > 100 µM (inactive) | > 100 µM (inactive) | > 100 µM (inactive) | > 100 µM (inactive) | > 100 µM (inactive) | > 100 µM (inactive) | > 100 µM (inactive) | > 100 µM (inactive) |
| c1cc2c(c(NC3=NCCO3)c1)CCC2 | > 100 µM (inactive) | > 100 µM (inactive) | > 100 µM (inactive) | > 100 µM (inactive) | > 100 µM (inactive) | > 100 µM (inactive) | > 100 µM (inactive) | > 100 µM (inactive) | > 100 µM (inactive) | > 100 µM (inactive) | > 100 µM (inactive) | 86.5 µM (inactive) | > 100 µM (inactive) | > 100 µM (inactive) | > 100 µM (inactive) |  | > 100 µM (inactive) | > 100 µM (inactive) |
| C=C1C(C[C@@H]2O[C@H]3C[C@H]4O[C@@]5(C[C@@H]6O[C@]7(C[C@H](C)[C@@H]8O[C@@H]9CC(C(O)CO)O[C@@H]9C[C@@H]8O7)C[C@H](C)[C@@H]6O5)C[C@H]4O[C@H]3[C@H](C)[C@H]2O)O[C@@H](CC[C@@H]2O[C@@H](CC[C@@]34CC5O[C@H]6C(O[C@H]7CC[C@H](CC(=O)OC)O[C@@H]7[C@@H]6O3)[C@H]5O4)CC2=C)C[C@H]1C (stereo not given in full) | < 0.0001 µM (active) | 0.00142 µM (active) |  |  | < 0.0001 µM (active) | 0.0152 µM (active) |  | 0.000146 µM (active) | < 0.0001 µM (active) |  | < 0.0001 µM (active) | < 0.0001 µM (active) | 0.000174 µM (active) | 0.00632 µM (active) | < 0.0001 µM (active) | 0.000154 µM (active) | < 0.0001 µM (active) | 0.000184 µM (active) |
| CC(=O)Nc1cc(Nc2cc(O)nc(O)n2)ccc1C |  | > 100 µM (inactive) | > 100 µM (inactive) |  | > 100 µM (inactive) | > 100 µM (inactive) |  |  | > 100 µM (inactive) | > 100 µM (inactive) | > 100 µM (inactive) | > 100 µM (inactive) | > 100 µM (inactive) | > 100 µM (inactive) | > 100 µM (inactive) | > 100 µM (inactive) | > 100 µM (inactive) | > 100 µM (inactive) |
| O=C1Nc2ccc(Br)cc2/C1=N/NC(=S)Nc1ccc(F)cc1 | 2.56 µM (inactive) | 43.2 µM (inactive) | 9.91 µM (inactive) | 5.38 µM (inactive) |  | 5.86 µM (inactive) | 10.9 µM (inactive) | 2.58 µM (inactive) | 3.67 µM (inactive) | 4.95 µM (inactive) | 13.3 µM (inactive) | 1.71 µM (inactive) | 9.84 µM (inactive) | 12.6 µM (inactive) | 3.69 µM (inactive) | 11.1 µM (inactive) | 0.948 µM (active) | 4.31 µM (inactive) |
| CCN(CC)CCC(=O)/C=C/c1ccc(Cl)c(Cl)c1 |  | 7.93 µM (inactive) |  |  | 2.45 µM (inactive) | 2.65 µM (inactive) | 8.55 µM (inactive) | 3.01 µM (inactive) |  | 3.77 µM (inactive) | 8.61 µM (inactive) | 2.83 µM (inactive) | > 10 µM (inactive) | 3.48 µM (inactive) | > 10 µM (inactive) |  |  | 3.05 µM (inactive) |
| CC1(O)CCC(C(C)(C)O)CC1 (stereo not given) [TERPIN] | > 100 µM (inactive) | > 100 µM (inactive) | > 100 µM (inactive) | > 100 µM (inactive) | > 100 µM (inactive) | > 100 µM (inactive) | > 100 µM (inactive) | > 100 µM (inactive) | > 100 µM (inactive) |  | > 100 µM (inactive) | > 100 µM (inactive) | > 100 µM (inactive) | > 100 µM (inactive) | > 100 µM (inactive) | > 100 µM (inactive) | 16.1 µM (inactive) | > 100 µM (inactive) |
